Assay results reported in patent US8476197B2, “Aminopropenoates as fungicides” (priority 2009, dated 2013).
Where two headings read alike, the source gives them in different places. Marks after values point to notes of the source that are not given here.

Tests used:
[1] = tested on: Myzus persicae; conditions: spray on Chinese cabbage leaf-disks, 500 g/ha, after 6 days
Protocol: Chinese cabbage (Brassica pekinesis) leaf-disks infected with all instars of the green peach aphid (Myzus persicae), are sprayed with a preparation of the active ingredient at the desired concentration. After 6 days mortality in % is determined. 100% means that all aphids have been killed; 0% means that none of the aphids have been killed.

[2] = tested on: Boophilus microplus; assay: Boophilus microplus test (injection); assay type: in vivo; conditions: injection into adult engorged female ticks, 20 μg/animal, after 7 days
Protocol: Boophilus microplus—Test Injection)
• Solvent: dimethyl sulfoxide
Five adult engorged female ticks (Boophilus microplus) are injected with 1 μl compound solution into the abdomen. Ticks are transferred into replica plates and incubated in a climate chamber for a period of time. Egg deposition of fertile eggs is monitored. […] 100% means that all eggs are infertile; 0% means that all eggs are fertile.

| Structure (SMILES) | activity (mortality) [1] | Log P (pH 7.5) | Log P (pH 2.3) | activity (mortality; 100% means all eggs infertile) [2] | Log P (pH 2.7) |
| --- | --- | --- | --- | --- | --- |
| CNC(=O)C(C#N)=C(NC(C)C1CC1)c1cccnc1Cl (mixture of isomers) [Compound 1244] | 100% | – | – | – | – |
| CCOC(=O)C(C#N)=C(NC(C)c1nccs1)c1cccnc1SC (racemic) [Compound 62] | 100% | 2.73 | – | – | – |
| CCOC(=O)C(C#N)=C(NC1CCCNC1=O)c1cccnc1Cl (racemic) [Compound 239] | – | 1.6 | 1.67 | 100% | – |
| CSCC(C)NC(=C(C#N)C(=O)OC(C)C)c1cccnc1Cl (stereo not shown) [Compound 597] | 90% | 3.03 | – | – | – |
| CCOC(=O)C(C#N)=C(NC(C)C(=O)NC)c1ncc(C(F)(F)F)cc1Cl (stereo not shown) [Compound 600] | 100% | – | – | – | 2.41^[a] |
